What all share (assay type): functional
In one experiment the test system is A549. The experiment is described as follows: Cytotoxicity against human A549 cells assessed as reduction in cell growth incubated for 48 hrs by CCK8 method.
A further experiment relates to NCI-H460. The experiment is described as follows: Cytotoxicity against human NCI-H460 cells assessed as reduction in cell growth incubated for 48 hrs by CCK8 method.
The test system of another experiment is RAW264.7. Put plainly: Antiinflammatory activity in mouse RAW264.7 cells assessed as inhibition of LPS induced NO production at 10 uM preincubated for 24 hrs followed by LPS stimulation and measured after 24 hrs by Griess assay relative to control. More on the design: scale not given: the % may be the effect or the level left. The conditions noted are these: time 48 hrs.

Another experiment deals with H9c2. The experiment is described as follows: Antioxidant activity against H2O2 treated rat H9c2 cells assessed as inhibition of MDA level at 10 uM incubated for 4 hrs followed by H2O2 administration by colorimetric assay relative to control. More on the design: scale not given: the % may be the effect or the level left.

In the case of `C[C@H]1CC[C@H]2[C@H](C)[C@H]3CC[C@@H]4[C@@H](C[C@H]5[C@H]4C[C@@H](O)[C@H]4C[C@@H](O)CC[C@@]45C)[C@@H]3CN2C1`, the CC50 was 19 µM with A549 and 10 µM in the experiment with NCI-H460. For the same compound, the Activity in the experiment with RAW264.7 came out at 8.3%; in the experiment on H9c2, 38%.
With `C[C@H]1CC[C@H]2[C@H](C)[C@@H]3CC[C@@H]4[C@@H](C[C@H]5[C@H]4CC(=O)[C@H]4C[C@@H](O)CC[C@@]45C)[C@@H]3CN2C1`, the CC50 came to 30 µM with A549 and 46 µM with NCI-H460. Moreover, the Activity in the experiment with RAW264.7 came out at 23%; in the experiment with H9c2 it was 39%.
For `C[C@H]1CC[C@H]2[C@H](C)[C@H]3CC[C@@H]4[C@@H](C[C@H]5[C@H]4CC(=O)[C@H]4C[C@@H](O)CC[C@@]45C)[C@@H]3CN2C1` the same measures were 22 µM, 37 µM, 42% and 34%.
For the compound `C[C@@H]1CC[C@H]2[C@H](C)[C@H]3CC[C@@H]4[C@@H](C[C@H]5[C@H]4C[C@H](O)[C@H]4C[C@@H](O)CC[C@@]45C)[C@H]3C[N+]2([O-])C1` (stereo not given in full), the CC50 with A549 was determined as 38 µM; in the experiment on NCI-H460 it was 45 µM. For the same compound, the Activity worked out at 40% with RAW264.7 and 15% with H9c2.
Turning to `C[C@@H]1CC[C@H]2[C@H](C)[C@H]3CC[C@@H]4[C@@H](C[C@H]5[C@H]4CC(=O)[C@H]4C[C@@H](O)CC[C@@]45C)[C@H]3C[N+]2([O-])C1` (stereo not given in full), the results for the 50% cytotoxic concentration (CC50) with A549 and in the experiment on NCI-H460 were 9.5 µM and 11 µM, respectively. The Activity in the experiment on RAW264.7 is 1.4%; in the experiment on H9c2, 39%.
As to `C[C@H]1CC[C@H]2[C@H](C)[C@H]3CC[C@@H]4[C@@H](C[C@H]5[C@H]4C[C@H](O)[C@H]4C[C@@H](O)CC[C@@]45C)[C@@H]3CN2C1`, the CC50 in the experiment on A549 amounted to 11 µM; in the experiment with NCI-H460, 20 µM. Also, the values for the Activity with RAW264.7 and in the experiment on H9c2 were 57% and 29%, respectively.
As for `C[C@@H]1CC[C@H]2[C@H](C)[C@H]3CC[C@@H]4[C@@H](C[C@H]5[C@H]4C[C@H](O)[C@H]4C[C@@H](O)CC[C@@]45C)[C@@H]3C[N+]2([O-])C1` (stereo not given in full), the CC50 in the experiment with A549 was found to be 35 µM; with NCI-H460 it was 45 µM. The Activity with RAW264.7 was 24%; in the experiment with H9c2, 48%.
With `C[C@@H]1CC[C@H]2[C@H](C)[C@H]3CC[C@@H]4[C@@H](C[C@H]5[C@H]4C[C@H](O)[C@H]4C[C@@H](O)CC[C@@]45C)[C@@H]3CN2C1`, the CC50 is 23 µM in the experiment on A549 and 40 µM in the experiment on NCI-H460. Further, the values for the Activity with RAW264.7 and in the experiment on H9c2 were 7.9% and 15%, respectively.
`C[C@@H]1CC[C@H]2[C@H](C)[C@H]3CC[C@@H]4[C@@H](C[C@H]5[C@H]4CC(=O)[C@H]4C[C@@H](O[C@@H]6O[C@H](CO)[C@@H](O)[C@H](O)[C@H]6O)CC[C@@]45C)[C@H]3CN2C1`: the results for the cytotoxic concentration (CC50) in the experiment on A549 and with NCI-H460 were 19 µM and 59 µM, respectively. Further, the Activity with RAW264.7 came to 7.8%; in the experiment with H9c2 it was 53%.
On to `C[C@@H]1CC[C@H]2[C@H](C)[C@@H]3CC[C@@H]4[C@@H](C[C@H]5[C@H]4CC(=O)[C@H]4C[C@@H](O)CC[C@@]45C)[C@@H]3CN2C1`, for which the figures for the CC50 in the experiment on A549 and in the experiment with NCI-H460 were 31 µM and 37 µM, respectively. In addition, the Activity turned out to be 47% in the experiment on RAW264.7 and 21% in the experiment on H9c2.
As for `C[C@H]1CC[C@H]2[C@H](C)c3ccc4c(c3CN2C1)C[C@H]1[C@H]4C[C@H](O)[C@H]2C[C@@H](O)CC[C@@]21C`, the values for the CC50 with A549 and in the experiment with NCI-H460 were 34 µM and 65 µM, respectively. Moreover, the Activity with RAW264.7 stood at 2.1%; in the experiment on H9c2 it was 43%.
As to `C[C@@H]1CC[C@H]2[C@H](C)[C@H]3CC[C@@H]4[C@@H](C[C@H]5[C@H]4CC(=O)[C@H]4C[C@@H](O)CC[C@@]45C)[C@@H]3CN2C1`, the cytotoxic concentration (CC50) in the experiment on A549 is 29 µM; with NCI-H460, 49 µM. Besides, the Activity in the experiment on RAW264.7 is reported as -1.3%; with H9c2, 20%.
Regarding `CC1=C2C[C@H]3[C@@H](CC(=O)[C@H]4C[C@@H](O)CC[C@@]43C)[C@@H]2CC[C@]12O[C@@H]1C[C@H](C)CN[C@H]1[C@H]2C`, the CC50 with A549 is 9.6 µM; in the experiment with NCI-H460, 17 µM. Moreover, the Activity in the experiment with RAW264.7 is reported as 66%; in the experiment with H9c2 it was 72%.
On to `C[C@@H]1CC[C@H]2[C@@H](C)[C@H]3CC[C@@H]4[C@@H](C[C@H]5[C@H]4CC(=O)[C@H]4C[C@@H](O[C@@H]6O[C@H](CO)[C@@H](O)[C@H](O)[C@H]6O)CC[C@@]45C)[C@@H]3CN2C1`, for which the CC50 worked out at 39 µM in the experiment on A549 and 54 µM with NCI-H460. The Activity with RAW264.7 came to 6.1%; with H9c2, 24%.
Regarding `C[C@@H]1CC[C@H]2[C@H](C)c3ccc4c(c3CN2C1)C[C@H]1[C@H]4C[C@H](O)[C@H]2C[C@@H](O)CC[C@@]21C`, the CC50 stood at 52 µM in the experiment on A549 and 65 µM in the experiment on NCI-H460. Further, the Activity in the experiment with RAW264.7 was 45%; in the experiment with H9c2, 58%.
In the case of `CC1=C2C[C@H]3[C@@H](CC(=O)[C@H]4C[C@H](O)CC[C@@]43C)[C@@H]2CC[C@]12O[C@@H]1C[C@H](C)CN[C@H]1[C@H]2C`, the CC50 in the experiment on A549 was found to be 15 µM; with NCI-H460 it was 29 µM. Moreover, the Activity in the experiment with RAW264.7 was determined as 73%; in the experiment on H9c2, 53%.
For `C[C@H]1CC[C@@H]2[C@H](C)[C@@H]3CC[C@@H]4[C@@H](C[C@H]5[C@H]4CC(=O)[C@H]4C[C@@H](O)CC[C@@]45C)[C@@H]3CN2C1`, the half-maximal cytotoxic concentration (CC50) in the experiment on A549 amounted to 6.8 µM; in the experiment with NCI-H460, 25 µM. Besides, the results for the Activity with RAW264.7 and with H9c2 were 62% and 5.4%, respectively.
With `C[C@@H]1CC[C@H]2[C@H](C)[C@H]3CC[C@@H]4[C@@H](C[C@H]5[C@H]4CC(=O)[C@H]4C[C@@H](O)CC[C@@]45C)[C@H]3CN2C1`, the CC50 in the experiment on A549 turned out to be 43 µM; in the experiment on NCI-H460, 54 µM. Moreover, the Activity with RAW264.7 came to 44%; with H9c2 it was 24%.
`C[C@@H]1CC[C@H]2[C@H](C)[C@H]3CC[C@@H]4[C@@H](C[C@H]5[C@H]4CC(=O)[C@H]4C[C@@H](O)CC[C@@]45C)[C@@H]3C[N+]2([O-])C1` (stereo not given in full): the values for the 50% cytotoxic concentration (CC50) in the experiment on A549 and in the experiment on NCI-H460 were 21 µM and 37 µM, respectively. Further, the Activity is 0.9% with RAW264.7 and 29% with H9c2.
For `C[C@H]1CC[C@@H]2[C@H](C)[C@@H]3CC[C@@H]4[C@@H](C[C@H]5[C@H]4C[C@@H](O)[C@H]4C[C@@H](O)CC[C@@]45C)[C@@H]3CN2C1`, the CC50 came to 10 µM with A549 and 12 µM in the experiment on NCI-H460. Moreover, the Activity in the experiment with RAW264.7 is reported as 27%; in the experiment on H9c2, 33%.

(Values after ChEMBL document CHEMBL5357052, “Diastereomers of Steroidal Alkaloids with Cytotoxic Activities against Non-Small-Cell Lung Cancer from the Bulbs of Fritillaria sinica” (2024).)
